In US9498483B2, “2,3,5-trisubstituted thiophene compounds and uses thereof” (priority 2010, dated 2016):

Key:
[1] = test system: HCV replicon I389luc-ubi-neo/NS3-3′/ET in ET (Huh-lucubineo-ET) cells; assay: Replicon assay (Biological Example 2), luciferase readout; assay type: cell-based; conditions: Hepatitis C virus
Summary of the method: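 EC50 values come from Hill fits of % inhibition of replicon-driven firefly luciferase, relative to no-compound wells. Compounds were serially diluted (10 points, 3-fold, 0.1 nM–50 μM final, 0.5% DMSO) onto ET replicon cells and read after 48 h.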

HCV polymerase = target: T1, HCV polymerase (Hepatitis C virus genotype 1b, UniProt Q9WMX2); assay: Polymerase assay of Biological Example 1 (IC50 values of Table 3); assay type: biochemical; conditions: IC50 values of Table 3, polymerase assay of Biological Example 1; read-out: NS5B-enzyme3
T1 construct: (His)6 (C); made in house; host or cells: XL-1 cells (E. coli, by own knowledge)

[2] = ET cells, luciferase activity 48 hours after compound

`CC(C)(C)C#Cc1cc(N2C(=O)[C@](C)(CC#N)OC[C@H]2C2CCCCC2)c(C(=O)O)s1` [Compound 312, 3-((2S,5R)-2-Cyanomethyl-5-cyclohexyl-2-methyl-3-oxo-morpholin-4-yl)-5-(3,3-dimethyl-but-1-ynyl)-thiophene-2-carboxylic acid] was tested, and the IC50 [1, 2] was ≤ 100 nM and the IC50 (HCV polymerase) was 2 nM.

In the case of `CC(C)Nc1ccc(S(=O)(=O)N2CC(=O)N(c3cc(-c4ccccc4)sc3C(=O)O)C(C3CCCCC3)C2)cn1` (stereo not drawn) [Compound 85, 3-[2-Cyclohexyl-4-(6-isopropylamino-pyridine-3-sulfonyl)-6-oxo-piperazin-1-yl]-5-phenyl-thiophene-2-carboxylic acid], the IC50 [1, 2] is reported as ≤ 100 nM and the IC50 (HCV polymerase) is reported as 2 nM.

With `O=C(O)c1sc(-c2ccccc2)cc1N1C(=O)CN(S(=O)(=O)c2ccc(N3CCCCC3)nc2)CC1C1CCCCC1` (stereo not drawn) [Compound 84, 3-[2-Cyclohexyl-6-oxo-4-(3,4,5,6-tetrahydro-2H-[1,2′]bipyridinyl-5′-sulfonyl)-piperazin-1-yl]-5-phenyl-thiophene-2-carboxylic acid] the IC50 [1, 2] was ≤ 100 nM and the IC50 (HCV polymerase) was 4 nM.

In the case of `Cc1ccc(-c2cc(N3C(=O)CN(S(=O)(=O)c4cn(C)c(C)n4)C[C@H]3C3CCCCC3)c(C(=O)O)s2)cc1` [Compound 298, 3-[(R)-2-Cyclohexyl-4-(1,2-dimethyl-1H-imidazole-4-sulfonyl)-6-oxo-piperazin-1-yl]-5-p-tolyl-thiophene-2-carboxylic acid], the IC50 [1, 2] is reported as ≤ 100 nM and the IC50 (HCV polymerase) is reported as 1 nM.

With `CC(C)(C)C#Cc1cc(N2C(=O)CCCC[C@H]2C2CCCCC2)c(C(=O)O)s1` [Compound 335, 3-((S)-2-Cyclohexyl-7-oxo-azepan-1-yl)-5-(3,3-dimethyl-but-1-ynyl)-thiophene-2-carboxylic acid] the IC50 ([1]; between 100 nM and 5.0 uM) was 100 to 5000 nM and the IC50 (HCV polymerase) was 24 nM.

For `CC(C)(C)C#Cc1cc(N2C(=O)[C@@](C)(CCCO)OC[C@H]2C2CCCCC2)c(C(=O)O)s1` [Compound 311, 3-[(2R,5R)-5-Cyclohexyl-2-(3-hydroxy-propyl)-2-methyl-3-oxo-morpholin-4-yl]-5-(3,3-dimethyl-but-1-ynyl)-thiophene-2-carboxylic acid], the IC50 [1, 2] was ≤ 100 nM and the IC50 (HCV polymerase) was 2 nM.

`Cc1ccc(-c2cc(N3C(=O)CN(S(=O)(=O)c4ccc(N5C[C@H]6C[C@@H]5CO6)nc4)C[C@H]3C3CCCCC3)c(C(=O)O)s2)cc1` [Compound 289, 3-{(R)-2-Cyclohexyl-4-[(1R,4R)-6-(2-oxa-5-aza-bicyclo[2.2.1]hept-5-yl)-pyridine-3-sulfonyl]-6-oxo-piperazin-1-yl}-5-p-tolyl-thiophene-2-carboxylic acid] was tested, and the IC50 [1, 2] was ≤ 100 nM and the IC50 (HCV polymerase) was 1 nM.

For `COc1ccc(S(=O)(=O)N2CC(=O)N(c3cc(C#CC(C)(C)C)sc3C(=O)O)[C@H](C3CCCCC3)C2)cc1F` [Compound 246, 3-[(R)-2-Cyclohexyl-4-(3-fluoro-4-methoxy-benzenesulfonyl)-6-oxo-piperazin-1-yl]-5-(3,3-dimethyl-but-1-ynyl)-thiophene-2-carboxylic acid], the IC50 [1, 2] was ≤ 100 nM and the IC50 (HCV polymerase) was 4 nM.

Work on `O=C(O)c1sc(-c2ccccc2)cc1N1C(=O)CC(O)CC1C1CCCCC1` (stereo not drawn) [Compound 12] yielded an IC50 ([1]; between 100 nM and 5.0 uM) of 100 to 5000 nM and an IC50 (HCV polymerase) of 45 nM.

In the case of `CC(C)(C)C#Cc1cc(N2C(=O)[C@H](O)CC[C@H]2C2CCCCC2)c(C(=O)O)s1` [Compound 334, 3-((3R,6S)-6-Cyclohexyl-3-hydroxy-2-oxo-piperidin-1-yl)-5-(3,3-dimethyl-but-1-ynyl)-thiophene-2-carboxylic acid], the IC50 [1, 2] is reported as ≤ 100 nM and the IC50 (HCV polymerase) is reported as 3 nM.

`CC(C)(C)C#Cc1cc(N2C(=O)CCC2C2CCCCC2)c(C(=O)O)s1` (stereo not drawn) [Compound 220, 3-(2-Cyclohexyl-5-oxo-pyrrolidin-1-yl)-5-(3,3-dimethyl-but-1-ynyl)-thiophene-2-carboxylic acid] was tested, and the IC50 ([1]; between 100 nM and 5.0 uM) was 100 to 5000 nM and the IC50 (HCV polymerase) was 15 nM.

In the case of `N#Cc1ccc(-c2cc(N3C(=O)CCCC3C3CCCCC3)c(C(=O)O)s2)cc1` (stereo not drawn) [Compound 129, 5-(4-Cyano-phenyl)-3-(2-cyclohexyl-6-oxo-piperidin-1-yl)-thiophene-2-carboxylic acid], the IC50 ([1]; between 100 nM and 5.0 uM) is reported as 100 to 5000 nM and the IC50 (HCV polymerase) is reported as 96 nM.

`O=C(O)c1sc(-c2ccccc2)cc1N1C(=O)CN(S(=O)(=O)c2ccc(-c3cncnc3)nc2)C[C@H]1C1CCCCC1` [Compound 206, 3-[(R)-2-Cyclohexyl-6-oxo-4-(6-pyrimidin-5-yl-pyridine-3-sulfonyl)-piperazin-1-yl]-5-phenyl-thiophene-2-carboxylic acid] showed an IC50 ([1]; between 100 nM and 5.0 uM) of 100 to 5000 nM and an IC50 (HCV polymerase) of 1 nM.

For `CC(=O)N1CCN(c2ccc(S(=O)(=O)N3CC(=O)N(c4cc(-c5ccccc5)sc4C(=O)O)C(C4CCCCC4)C3)cn2)CC1` (stereo not drawn) [Compound 89, 3-{4-[6-(4-Acetyl-piperazin-1-yl)-pyridine-3-sulfonyl]-2-cyclohexyl-6-oxo-piperazin-1-yl}-5-phenyl-thiophene-2-carboxylic acid], the IC50 [1, 2] was ≤ 100 nM and the IC50 (HCV polymerase) was 3 nM.

`O=C(O)c1sc(-c2ccccc2)cc1N1C(=O)CN(Cc2ccc(Cl)nc2)C[C@H]1C1CCCCC1` [Compound 267, 3-[(R)-4-(6-Chloro-pyridin-3-ylmethyl)-2-cyclohexyl-6-oxo-piperazin-1-yl]-5-phenyl-thiophene-2-carboxylic acid] was tested, and the IC50 ([1]; between 100 nM and 5.0 uM) was 100 to 5000 nM and the IC50 (HCV polymerase) was 64 nM.

`O=C(O)c1sc(-c2ccccc2)cc1N1C(=O)CN(S(=O)(=O)c2ccccc2F)CC1C1CCCCC1` (stereo not drawn) [Compound 40, 3-[2-Cyclohexyl-4-(2-fluoro-benzenesulfonyl)-6-oxo-piperazin-1-yl]-5-phenyl-thiophene-2-carboxylic acid] gave an IC50 ([1]; between 100 nM and 5.0 uM) of 100 to 5000 nM and an IC50 (HCV polymerase) of 13 nM.

With `C[C@@H](O)C[C@H]1OC[C@@H](C2CCCCC2)N(c2cc(C#CC(C)(C)C)sc2C(=O)O)C1=O` [Compound 336, 3-[(2R,5R)-5-Cyclohexyl-2-((R)-2-hydroxy-propyl)-3-oxo-morpholin-4-yl]-5-(3,3-dimethyl-but-1-ynyl)-thiophene-2-carboxylic acid] the IC50 [1, 2] was ≤ 100 nM and the IC50 (HCV polymerase) was 3 nM.

With `CC(C)(C)C#Cc1cc(N2C(=O)CN(S(=O)(=O)c3ccc(C(F)(F)F)nc3)C[C@H]2C2CCCCC2)c(C(=O)O)s1` [Compound 230, 3-[(R)-2-Cyclohexyl-6-oxo-4-(6-trifluoromethyl-pyridine-3-sulfonyl)-piperazin-1-yl]-5-(3,3-dimethyl-but-1-ynyl)-thiophene-2-carboxylic acid] the IC50 ([1]; between 100 nM and 5.0 uM) was 100 to 5000 nM and the IC50 (HCV polymerase) was 6 nM.

For `CC(C)(C)C#Cc1cc(N2C(=O)[C@H](CCCO)OC[C@H]2C2CCCCC2)c(C(=O)O)s1` (single isomer, unassigned) [Compound 2], the IC50 [1, 2] was ≤ 100 nM and the IC50 (HCV polymerase) was 35 nM.

Work on `CC1(NC(=O)OC(C)(C)C)CCN(c2ccc(S(=O)(=O)N3CC(=O)N(c4cc(-c5ccccc5)sc4C(=O)O)[C@H](C4CCCCC4)C3)cn2)CC1` [Compound 153, 3-[(R)-4-(4-tert-Butoxycarbonylamino-4-methyl-3,4,5,6-tetrahydro-2H-[1,2′]bipyridinyl-5′-sulfonyl)-2-cyclohexyl-6-oxo-piperazin-1-yl]-5-phenyl-thiophene-2-carboxylic acid] yielded an IC50 ([1]; between 100 nM and 5.0 uM) of 100 to 5000 nM and an IC50 (HCV polymerase) of 4 nM.

For `C[C@@H]1CCCN1c1ccc(S(=O)(=O)N2CC(=O)N(c3cc(-c4ccccc4)sc3C(=O)O)[C@H](C3CCCCC3)C2)cn1` [Compound 130, 3-{(R)-2-Cyclohexyl-4-[6-((R)-2-methyl-pyrrolidin-1-yl)-pyridine-3-sulfonyl]-6-oxo-piperazin-1-yl}-5-phenyl-thiophene-2-carboxylic acid], the IC50 [1, 2] was ≤ 100 nM and the IC50 (HCV polymerase) was 1 nM.

In the case of `CCC1(CC)CN(c2ccc(S(=O)(=O)N3CC(=O)N(c4cc(-c5ccccc5)sc4C(=O)O)[C@H](C4CCCCC4)C3)cn2)CCO1` [Compound 218, 3-{(R)-2-Cyclohexyl-4-[6-(2,2-diethyl-morpholin-4-yl)-pyridine-3-sulfonyl]-6-oxo-piperazin-1-yl}-5-phenyl-thiophene-2-carboxylic acid], the IC50 [1, 2] is reported as ≤ 100 nM and the IC50 (HCV polymerase) is reported as 1 nM.

Work on `CC(C)(C)C#Cc1cc(N2C(=O)C(CCCO)(CCCO)OC[C@H]2C2CCCCC2)c(C(=O)O)s1` [Compound 115, 3-[(R)-5-Cyclohexyl-2,2-bis-(3-hydroxy-propyl)-3-oxo-morpholin-4-yl]-5-(3,3-dimethyl-but-1-ynyl)-thiophene-2-carboxylic acid] yielded an IC50 ([1]; between 100 nM and 5.0 uM) of 100 to 5000 nM and an IC50 (HCV polymerase) of 4 nM.

With `O=C(O)c1sc(-c2ccccc2)cc1N1C(=O)CN(S(=O)(=O)c2ccc(NC3CCCC3)nc2)CC1C1CCCCC1` (stereo not drawn) [Compound 82, 3-[2-Cyclohexyl-4-(6-cyclopentylamino-pyridine-3-sulfonyl)-6-oxo-piperazin-1-yl]-5-phenyl-thiophene-2-carboxylic acid] the IC50 [1, 2] was ≤ 100 nM and the IC50 (HCV polymerase) was 6 nM.

`CC(C)(C)C#Cc1cc(N2C(=O)[C@@H](CCCO)OC[C@H]2C2CCCCC2)c(C(=O)O)s1` (single isomer, unassigned) [Compound 3] was tested, and the IC50 [1, 2] was ≤ 100 nM and the IC50 (HCV polymerase) was 4 nM.

`N#Cc1ccccc1-c1ccc(S(=O)(=O)N2CC(=O)N(c3cc(-c4ccccc4)sc3C(=O)O)[C@H](C3CCCCC3)C2)cn1` [Compound 213, 3-{(R)-4-[6-(2-Cyano-phenyl)-pyridine-3-sulfonyl]-2-cyclohexyl-6-oxo-piperazin-1-yl}-5-phenyl-thiophene-2-carboxylic acid] was tested, and the IC50 [1, 2] was ≤ 100 nM and the IC50 (HCV polymerase) was 1 nM.

`C[C@@H]1CN(c2ccc(S(=O)(=O)N3CC(=O)N(c4cc(-c5ccccc5)sc4C(=O)O)[C@H](C4CCCCC4)C3)cn2)CCN1C(=O)OC(C)(C)C` [Compound 151, (R)-4-{5-[(R)-4-(2-Carboxy-5-phenyl-thiophen-3-yl)-3-cyclohexyl-5-oxo-piperazine-1-sulfonyl]-pyridin-2-yl}-2-methyl-piperazine-1-carboxylic acid tert-butyl ester] was tested, and the IC50 [1, 2] was ≤ 100 nM and the IC50 (HCV polymerase) was 3 nM.
